Patent US20030077573A1, “Methods of identifying compounds useful in the inhibition of neurodegenerative disease” (priority 1999, published 2003)
Bridge positions count the residues as written; N and C are the ends. Ends that are not written are not given here.

Columns and labels:
[1] = test system: murine microglial cell line (N9); test: LTB4 release from N9 microglial cells; type: cell-based; details: 18 hours; for effect on Aβ-induced microglial LTB4 release: Aβ1-40 500 nM + drug (dipyridamole 10 μM)
Experimental: The murine microglial cell line (N9) is kindly provided by Dr. Paola Ricciardi-Castagnoli (Cellular Pharmacology Center, Milan, Italy) and cells are grown in RPMI 1640 medium supplemented with 5% fetal calf serum, 2 mM glutamine, 100 U/mL penicillin, 0.1 μg/mL streptomycin and 0.05 mM 2-mercaptoethanol. Microglial cells are seeded at 50,000 cells/well in 6-well plates (Falcon, France) and treated with Aβ1-40 (500 nM), dipyridamole (10 μM) or untreated (control) and incubated for 18 hours. Cell supernatants are then collected and immediately frozen at −80° C.
Cell supernatants (50 μL) are used in the LTB4 assay, and each sample is assayed in duplicate. Manipulations are performed in accordance with the manufacturer's instruction. A spectramax 250 spectrophotometer (Molecular Devices, San Diego, USA) is used to measure absorbance at 405 nm and a standard curve is plotted using a 4-parameter model. Cell extracts for protein determination are obtained by lysing microglial cells in 110 μL of ice cold lysis buffer ([…] pH 7.5, 150 mM NaCl, 1 mM EDTA, 1 mM EGTA, 1% Triton X-100, 2.5 mM sodium pyrophosphate, 1 mM β-Glycerophosphate, 1 mM Na3VO4, 1 μg/ml leupeptin and 1 mM phenylmethylsulfonyl fluoride). Protein concentrations are determined for each sample using the Biorad reagent according to the manufacturer's instruction. LTB4 data are thus expressed as pg LTB4 /mg cellular protein.

rat aortic rings [2] = test: vasoconstriction assay, ET-1-induced constriction of rat aortic rings; details: ET-1 1-5 nM, ODQ 10 μM, YC-1 5 μM, L-NAME 100 μM, dipyridamole 10 μM; for effect on Aβ-enhancement of ET-1-induced vasoconstriction (agent + Aβ): 1 μM Aβ1-40, ANOVA interaction; for effect on ET-1-induced vasoconstriction (agent alone): Aβ1-40 1 μM
Experimental: (§1) Vasoactivity is measured in rat aortic rings using the system previously described, for example by Crawford, F., et al., The vasoactivity of Aβ peptides, Ann. N. Y. Acad. Sci. 826:3546, (1997); Crawford, F., et al., Characteristics of the in vitro vasoactivity of beta-amyloid peptides, Exp. Neurol. 150:159-168 (1998); Paris, D., et al., Isoform-specific vasoconstriction induced by Apolipoprotein E and modulation of this effect by Alzheimer's β-amyloid peptide. Neurosci. Lett. 256:73-76, (1998); Paris, D., et al., Role of peroxynitrite in the vasoactive and cytotoxic properties of Alzheimer's β-amyloid1-40 peptide, Exp. Neurol. 152:116-122 (1998); and Thomas, T. N., et al., Vasoactive effects and free radical generation by β-amyloid peptides. U.S. Pat. No. 6,011,019. Jan. 4, 2000. Normal male Sprague-Dawley rats (7-8 months old) are sacrificed, and freshly dissected rat aortae are segmented into 3 mm rings and suspended in Kreb's buffer on hooks. These hooks are connected to an isometric transducer linked to a MacLab system. Aortic rings are equilibrated in the tissue bath system for two hours with the Kreb's buffer changed every 30 min.
For the vasoconstriction assay, the first group of aortic rings are pre-treated with 10 μM ODQ 2 minutes prior to the addition of 1 μM of Aβ1-40. After 5 minutes of incubation with Aβ, the vessels are then subjected to a dose range of ET-1 (from 1 nM to 5 nM). The second set of vessels are treated with Aβ prior to the addition of ET-1. A third set received ODQ treatment followed by ET-1, and the fourth group (control) only received ET-1 treatment. A similar protocol is applied with dipyridamole (10 μM), and YC-1 (5 μM). In all cases the percentage contraction as compared to baseline is determined for each dose of ET-1 used. The means and standard errors (SEs) of all such values are calculated.

[3] = test system: N9 murine microglial cell line; test: LPS-induced TNF-α release from N9 microglia; type: cell-based
rat aortic rings [4] = test: vasorelaxation assay, phenylephrine-constricted rat aortic rings; details: for effect on the relaxation induced by SNP: vessels constricted with 3.5 nM PE, SNP 0.1, 1, 2 μM, Aβ1-40 1 μM or ODQ 10 μM
Experimental: as §1
For the vasorelaxation assay, constricted aortic rings are pre-treated for 5 minutes with 1 μM of Aβ with a single dose of phenylephrine (3.5×10^−9 M) along with untreated controls. After waiting for stabilization of vasotension, aortic segments are subjected to a range of SNP doses. Aortic rings pre-constricted with a single dose of phenylephrine (3.5×10^−9 M) are treated with 10 μM ODQ 5 minutes prior to the addition of several doses of SNP. The effect of 10 μM of dipyridamole is also investigated on vessels pre-constricted with 3.5×10^−9 M of phenylephrine. Data are standardized such that the maximum PE-induced constriction is fixed at 100%.

rat aortic rings [5] = test: quantification of cGMP and cAMP levels in rat aortae (EIA)
Experimental: Aortic rings are equilibrated in Kreb's buffer for 2 hours and then constricted with a serial dose range of ET-1 (from 1 nM to 5 nM) in the presence or absence of 1 μM of Aβ. Immediately following maximum vasoconstriction (or, in the case of control rings, after 2 hours of equilibration in Kreb's buffer), aortae are frozen in liquid nitrogen. Vessels are then homogenized in 10% trichloracetic acid (TCA) diluted in PBS (at 4° C.) and centrifuged to pellet TCA precipitated proteins. Supernatants are collected and TCA is then removed from samples by three extractions with diethyl ether saturated in deionized water. Residual ether is removed from the sample by heating samples to 70° C. for 10 minutes. Both cGMP and cAMP levels are quantified using competitive binding EIAs (Alexis Biochemicals, San Diego, Calif.) according to the manufacturer's instruction.

[6] = ET-1 1-5 nM vs untreated control

Q: `OCCN(CCO)c1nc(N2CCCCC2)c2nc(N(CCO)CCO)nc(N3CCCCC3)c2n1` [dipyridamole] was tested. Which “effect on Aβ-induced microglial LTB4 release” value [1] did it give?
A: completely prevents the increased LTB4 production induced by Aβ

Q: And the “effect on Aβ-enhancement of ET-1-induced vasoconstriction (agent + Aβ)” value (rat aortic rings [2])?
A: blocks Aβ-induced vasoconstriction in a statistically interactive manner

Q: What about the “effect on ET-1-induced vasoconstriction (agent alone)” value (rat aortic rings [2]) of the same compound?
A: opposes ET-1-induced vasoconstriction in an ET-1 dose-dependent manner

Q: What about the “effect on LPS-induced microglial activation (TNF-α release)” value ([3]; LPS 2.5 ng/mL, 18 h, dipyridamole 10 μM, SNP 10 μM, YC-1 10 μM) of the same compound?
A: markedly reduce microglial activation induced by LPS

Q: What about the “relaxation of aortic rings constricted with phenylephrine” value (rat aortic rings [4]; 10 μM dipyridamole, 3.5 nM PE) of the same compound?
A: induced potent relaxation

Q: What about the “effect on Aβ opposition to relaxation” value (rat aortic rings [4]; 10 μM dipyridamole, Aβ-treated vs control vessels, PE-constricted) of the same compound?
A: blocks the opposition to relaxation normally induced by Aβ

Q: And the “relaxant effect on quiescent rings” value (rat aortic rings [4]; 10 μM dipyridamole, data not shown)?
A: no significant relaxant effect

Q: Which results are given for `COC(=O)[C@@H](N)CCCNC(=N)N[N+](=O)[O-]` [L-NAME, N-ω-nitro-L-arginine methyl ester]?
A: effect on Aβ-enhancement of ET-1-induced vasoconstriction (agent + Aβ) (rat aortic rings [2]): no statistical interaction is observed; effect on ET-1-induced vasoconstriction (agent alone) (rat aortic rings [2]): does not significantly increase ET-1-induced vasoconstriction

Q: Which “microglial LTB4 release” value ([1]; Aβ1-40 500 nM, vs untreated cells) does the source give for “Aβ1-40: freshly solubilized β-amyloid peptide Aβ1-40, supplied by QCB” here?
A: significant LTB4 release

Q: What about the “cAMP levels in rat aortic rings” value (rat aortic rings [5]; 1 μM Aβ + ET-1 vs ET-1 alone) of the same compound?
A: not able to modulate cAMP levels

Q: And the “cGMP levels in rat aortic rings” value (rat aortic rings [5]; 1 μM Aβ + ET-1 vs ET-1 alone)?
A: significantly lower compared to ET-1 treatment alone

Q: What about the “effect on the relaxation induced by SNP” value (rat aortic rings [4]) of the same compound?
A: relaxation induced by SNP, an NO-donor, is reduced

Q: Which “effect on Aβ-enhancement of ET-1-induced vasoconstriction (agent + Aβ)” value (rat aortic rings [2]) does the source give for `O=c1onc2cnc3ccccc3n12` [ODQ, 1H-[1,2,4]oxadiazolo[4,3,-α]quinoxalin-1-one] here?
A: constriction which is only additive

Q: And the “effect on ET-1-induced vasoconstriction (agent alone)” value (rat aortic rings [2])?
A: Neither ODQ or Aβ alone are able to potentiate vasoconstriction induced by ET-1

Q: And the “effect on the relaxation induced by SNP” value (rat aortic rings [4])?
A: blocks the relaxation induced by this NO donor

Q: What does the source list for `Nc1nc2c(nc(Br)n2[C@@H]2O[C@@H]3COP(=O)(O)O[C@H]3[C@H]2O)c(=O)[nH]1` [8-Br cGMP, 8-bromo cGMP]?
A: effect on Aβ-induced microglial LTB4 release [1]: completely block Aβ-induced microglial LTB4 release; effect on LPS-induced microglial TNF-α release ([3]; 8-Br cGMP 1 μM, data not shown): partially inhibit LPS-induced microglial TNF-α release; effect on LPS-induced microglial TNF-α release ([3]; 8-Br cGMP 5 μM, LPS 2.5 ng/mL, 18 h): completely inhibit LPS-induced microglial TNF-α release

Q: What does the source list for “ET-1: Endothelin-1, one of the most potent cerebrovascular vasoconstrictors (CSCSSLMDKECVYFCHLDIIW; disulfide 1-15, 3-11; ends not checked; UniProt P05305 53-73, looked up)”?
A: cAMP levels in rat aortic rings (rat aortic rings [5]; [6]): increase; cGMP levels in rat aortic rings (rat aortic rings [5]; [6]): increase
